Laboratory results as given in the NIST ThermoML archive (doi:10.1016/j.fluid.2015.12.007).

Assay: xn = mol fraction of the nth substance listed
Details: 101 kPa, Liquid; for speed of sound: Sing-around technique in a fixed-path interferometer; for mass density: Vibrating tube method

CCCCn1cc[n+](C)c1.COS(=O)(=O)[O-] [1-butyl-3-methylimidazolium methyl sulfate] + CC(O)CO
Details	mass density [kg/m3]	speed of sound [m/s]
293.15 K, x1 = 0.0574	1061.11	1541.9
293.15 K, x1 = 0.1155	1081.09	1554.6
293.15 K, x1 = 0.2102	1107.07	1573.6
293.15 K, x1 = 0.3133	1130.01	1591.4
293.15 K, x1 = 0.4151	1148.5	1602.8
293.15 K, x1 = 0.5038	1162.16	1613.5
293.15 K, x1 = 0.6026	1174.98	1626
293.15 K, x1 = 0.6996	1185.85	1636.8
293.15 K, x1 = 0.8095	1196.11	1649.4
293.15 K, x1 = 0.9003	1204.12	1660.2
298.15 K, x1 = 0.0574	1057.45	1528.2
298.15 K, x1 = 0.1155	1077.45	1541.1
298.15 K, x1 = 0.2102	1103.5	1560.2
298.15 K, x1 = 0.3133	1126.47	1578.4
298.15 K, x1 = 0.4151	1145.03	1589.9
298.15 K, x1 = 0.5038	1158.71	1600.8
298.15 K, x1 = 0.6026	1171.59	1613.1
298.15 K, x1 = 0.6996	1182.44	1624.2
298.15 K, x1 = 0.8095	1192.74	1636.8
298.15 K, x1 = 0.9003	1200.82	1647.5
303.15 K, x1 = 0.0574	1053.78	1514.5
303.15 K, x1 = 0.1155	1073.81	1527.5
303.15 K, x1 = 0.2102	1099.9	1546.9
303.15 K, x1 = 0.3133	1122.94	1565.2
303.15 K, x1 = 0.4151	1141.57	1577.1
303.15 K, x1 = 0.5038	1155.27	1588.2
303.15 K, x1 = 0.6026	1168.22	1600.5
303.15 K, x1 = 0.6996	1179.05	1611.8
303.15 K, x1 = 0.8095	1189.38	1624.5
303.15 K, x1 = 0.9003	1197.47	1635
308.15 K, x1 = 0.0574	1050.08	1500.8
308.15 K, x1 = 0.1155	1070.14	1513.9
308.15 K, x1 = 0.2102	1096.3	1533.6
308.15 K, x1 = 0.3133	1119.41	1552.2
308.15 K, x1 = 0.4151	1138.1	1564.4
308.15 K, x1 = 0.5038	1151.85	1575.8
308.15 K, x1 = 0.6026	1164.85	1588.2
308.15 K, x1 = 0.6996	1175.66	1599.6
308.15 K, x1 = 0.8095	1186.03	1612.3
308.15 K, x1 = 0.9003	1194.14	1622.9
313.15 K, x1 = 0.0574	1046.36	1487.1
313.15 K, x1 = 0.1155	1066.46	1500.4
313.15 K, x1 = 0.2102	1092.68	1520.3
313.15 K, x1 = 0.3133	1115.88	1539.2
313.15 K, x1 = 0.4151	1134.64	1551.8
313.15 K, x1 = 0.5038	1148.44	1563.4
313.15 K, x1 = 0.6026	1161.48	1576
313.15 K, x1 = 0.6996	1172.29	1587.6
313.15 K, x1 = 0.8095	1182.71	1600.3
313.15 K, x1 = 0.9003	1190.84	1610.9
318.15 K, x1 = 0.0574	1042.62	1473.6
318.15 K, x1 = 0.1155	1062.78	1487.1
318.15 K, x1 = 0.2102	1089.06	1507.4
318.15 K, x1 = 0.3133	1112.34	1526.4
318.15 K, x1 = 0.4151	1131.18	1539.2
318.15 K, x1 = 0.5038	1145.05	1551.5
318.15 K, x1 = 0.6026	1158.11	1563.8
318.15 K, x1 = 0.6996	1168.92	1576
318.15 K, x1 = 0.8095	1179.39	1588.5
318.15 K, x1 = 0.9003	1187.56	1599
